According to BindingDB's records for doi:10.1016/j.bmcl.2005.03.008 (Abbott Laboratories, 2005):

Target: T1, Dimer of Gag-Pol polyprotein [489-587] (Human immunodeficiency virus 1, UniProt P12497)
T1 construct: 489-587
Assay: Enzyme Inhibition Assay
Settings: pH 4.5; 30 °C
Method: HIV-1 protease inhibition was measured by a fluorescence assay using recombinant HIV-1 protease. […] The percent inhibition of enzyme activity in the presence of inhibitor was determined by comparing inhibition rates with uninhibited control reactions. All IC50 values were determined with a range of inhibitor concentrations using the relation IC50 = (100/ percent inhibition - 1) x inhibitor concentration.

| Compound | IC50 [nM] |
| --- | --- |
| Cc1nc(CN2CCN([C@H](C(=O)N[C@@H](Cc3ccccc3)[C@H](O)CN(CC(C)C)S(=O)(=O)c3ccc(CN=O)cc3)C(C)C)C2=O)cs1 [(2S)-N-[(2S,3R)-3-hydroxy-4-({4-[(1E)-(hydroxyimino)methyl]benzene}(2-methylpropyl)sulfonamido)-1-phenylbutan-2-yl]-3-methyl-2-{3-[(2-methyl-1,3-thiazol-4-yl)methyl]-2-oxoimidazolidin-1-yl}butanamide] | 5 |
| Cc1nc(CN2CCN([C@H](C(=O)N[C@@H](Cc3ccccc3)[C@H](O)CN(CC(C)C)S(=O)(=O)c3ccc(CO)cc3)C(C)C)C2=O)cs1 [(2S)-N-[(2S,3R)-3-hydroxy-4-{[4-(hydroxymethyl)benzene](2-methylpropyl)sulfonamido}-1-phenylbutan-2-yl]-3-methyl-2-{3-[(2-methyl-1,3-thiazol-4-yl)methyl]-2-oxoimidazolidin-1-yl}butanamide] | 16 |
| CO/N=C/c1ccc(S(=O)(=O)N(CC(C)C)C[C@@H](O)[C@H](Cc2ccccc2)NC(=O)[C@H](C(C)C)N2CCN(Cc3csc(C)n3)C2=O)cc1 [(2S)-N-[(2S,3R)-3-hydroxy-4-({4-[(1E)-(methoxyimino)methyl]benzene}(2-methylpropyl)sulfonamido)-1-phenylbutan-2-yl]-3-methyl-2-{3-[(2-methyl-1,3-thiazol-4-yl)methyl]-2-oxoimidazolidin-1-yl}butanamide] | 653 |
| Cc1nc(CN2CCN([C@H](C(=O)N[C@@H](Cc3ccccc3)[C@H](O)CN(CC(C)C)S(=O)(=O)c3cccc(CN=O)c3)C(C)C)C2=O)cs1 [(2S)-N-[(2S,3R)-3-hydroxy-4-({3-[(1E)-(hydroxyimino)methyl]benzene}(2-methylpropyl)sulfonamido)-1-phenylbutan-2-yl]-3-methyl-2-{3-[(2-methyl-1,3-thiazol-4-yl)methyl]-2-oxoimidazolidin-1-yl}butanamide] | 16 |
